Reference: ChEMBL document CHEMBL5230157, “The natural anthraquinone dye purpurin exerts antibacterial activity by perturbing the FtsZ assembly” (Bioorg Med Chem, 2021)

Biological target: T1, Cell division protein FtsZ (Bacillus subtilis, UniProt A5Z1V5)
T1 sequence (A5Z1V5 whole entry): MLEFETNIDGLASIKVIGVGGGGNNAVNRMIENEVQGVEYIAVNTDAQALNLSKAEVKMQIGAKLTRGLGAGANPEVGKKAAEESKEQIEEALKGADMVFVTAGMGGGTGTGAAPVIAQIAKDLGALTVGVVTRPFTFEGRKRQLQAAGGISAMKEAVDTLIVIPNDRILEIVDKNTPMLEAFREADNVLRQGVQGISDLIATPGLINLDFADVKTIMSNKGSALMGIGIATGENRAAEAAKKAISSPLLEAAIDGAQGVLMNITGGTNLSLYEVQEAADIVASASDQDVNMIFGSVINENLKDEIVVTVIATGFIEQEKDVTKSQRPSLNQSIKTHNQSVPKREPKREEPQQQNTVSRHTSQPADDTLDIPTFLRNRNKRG
Experiment: Binding affinity to Bacillus subtilis FtsZ assessed as dissociation constant of intrinsic tryptophan quenching incubated for 30 mins by double reciprocal plot analysis

CC1=CC(=O)c2c(O)cccc2C1=O [PLUMBAGIN]
Kd: 15.8 µM
